Assay results from patent US12410141B2, “Anti-cancer spirocyclic-guanidine compounds and uses thereof” (The Johns Hopkins University, priority 2020, dated 2025).

How the values were obtained:
[1] = under these conditions; reference (34); cited from earlier work
[2] = target: T1, 42 kDa cellular protein previously identified as RPN13 (Homo sapiens, UniProt Q16186); test: Labeling of ES2 cell lysate with biotinylated probes; assay type: binding; conditions: 45 min at 4° C., streptavidin-HRP
T1 construct: endogenous in cells; host or cells: ES2 cell lysate (clarified, in MPER buffer)
T1 sequence (Q16186 whole entry): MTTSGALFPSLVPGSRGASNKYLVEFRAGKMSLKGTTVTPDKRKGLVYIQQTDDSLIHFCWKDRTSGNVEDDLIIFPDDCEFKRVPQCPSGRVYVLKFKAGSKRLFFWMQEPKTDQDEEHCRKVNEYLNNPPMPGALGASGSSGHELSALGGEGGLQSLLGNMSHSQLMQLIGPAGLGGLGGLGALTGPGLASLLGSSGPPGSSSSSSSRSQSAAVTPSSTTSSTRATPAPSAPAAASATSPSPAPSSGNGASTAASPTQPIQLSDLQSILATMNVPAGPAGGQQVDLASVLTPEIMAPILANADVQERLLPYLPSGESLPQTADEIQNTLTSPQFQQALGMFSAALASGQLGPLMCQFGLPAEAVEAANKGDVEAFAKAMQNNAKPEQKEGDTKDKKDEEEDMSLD
Method: (§1) ES2 cell lysates were incubated with 20 μM RA190B for 45 min at 4° C., and then separated by SDS-PAGE, transferred to a PVDF membrane.
The lysates were then separated by SDS-PAGE, transferred to a PVDF membrane.

[3] = target: T2, 42 kDa RPN13 (Homo sapiens, UniProt Q16186); test: RA190B competitive labeling assay in ES2 cell lysate; assay type: binding; conditions: ES2 cell lysate pre-incubated 45 min at 4° C. (bortezomib or Up compounds 5 μM), then RA190B 20 μM
T2 construct: endogenous in cells; host or cells: ES2 cell lysate (clarified, in MPER buffer)
T2 sequence (Q16186 whole entry): as above
Method: (§2) Clarified cell lysate (40 ug/sample) in MPER buffer was pretreated with streptavidin-coated magnetic beads for 45 min at 4° C. to deplete non-specific biotinylated proteins in the cell lysate. […] Next, the samples were mixed with Laemmli sample buffer (BioRad) and boiled for 5 min. The proteins were separated using a 4-15% Bio-Rad Mini-PROTEAN SDS-PAGE gel (1 hr at 100 V), and transferred to PVDF membrane overnight at 4° C. (24 V). The membrane was blocked with 5% BSA in PBST for 1 hr at RT and washed for 20 minutes (3× with PBST). Then the membrane was probed with HRP-streptavidin (1:10,000 in PBST) for 1 hr at RT, washed for 30 min (3× with PBST), and developed using HyGLO chemiluminescent detection reagent (Denville) for biotin detection.
as §1

[4] = system: high molecular weight polyubiquitinated proteins in SKOV3 cells; test: Western blot for polyubiquitinated proteins, SKOV3 cells; assay type: cell-based; conditions: 12 hr, Up284 and RA475 0.5 and 1 μM, RA190 1 μM
Method: Cell lysate (10-20 μg total protein) prepared in MPER (Pierce) from each sample was subjected to SDS-PAGE, transferred to PVDF membranes and analyzed by Western blot using antibodies specific for ubiquitin (P4D1, sc-8017, Santa Cruz), or after stripping antibody for actin (#66009, Protein Tech Group), at the dilutions recommended by the manufacturers, and for secondary antibodies either peroxidase-linked anti-mouse IgG or anti-rabbit IgG (GE Healthcare UK Ltd) were utilized at the recommended dilution. The blots were developed using HyGLO chemiluminescent detection reagent (Denville).
Like RA190, RA475 was designed to be an inhibitor of upstream 19S RP proteasome function. […] Treatment with the same doses of Up284 (0.5 and 1 μM) or 1 μM RA190 provided positive controls, and vehicle alone (DMSO) was used as the negative control. At the end of the incubation, attached cells were lysed using MPER buffer according to the manufacturer's protocol. The lysates were subjected to Western blot analysis using antibody to ubiquitin, and then stripped and re-probed with actin antibody to provide a loading control (FIG. 5).
Proteasome inhibitors cause a rapid accumulation of polyUb proteins that is associated with unresolved UPR stress and the induction of apoptosis. Since RA475 is cytotoxic to ovarian cancer cells (Table 1), and induces such a rapid accumulation of polyUb proteins (FIG. 5), it was examined whether RA475 also triggered apoptosis. SKOV3 cells (FIG. 5A) were treated with Up284 (0.5 μM and 1 μM), 1 μM RA190, RA475 (0.5 μM and 1 μM) or vehicle alone (DMSO) and then cultured for 12 hr. OVCAR3 cells (FIG. 5B) were treated with Up284 (0.5 μM), Bortezomib (Bz, 0.25 μM), Ixazomib (Iz, 0.25 μM), RA475 (0.5 μM and 1 μM) or vehicle alone (DMSO). The attached cells were harvested and their lysates were subjected to Western blot analysis, first probed with antibody to ubiquitin and then to actin.

[5] = system: PACS; test: MTT cytotoxicity assay, PACS; assay type: cell-based; conditions: ovarian (mouse), 72 hr, read-out: IC50, cell killing
Method: (§3) All cell lines were obtained from the American Type Culture Collection (ATCC) and cultured in the specified medium supplemented with 10% fetal bovine serum, 100 IU/mL penicillin, and 100 μg/mL streptomycin at 37° C. in a humidified 5% CO2/95% air incubator. To assess drug cytotoxicity cells were seeded at 2,500 cells/well (10,000 cells/well for MM lines and primary cells) in 100 μL medium in 96-well plate. […]
(§4) It was examined whether the RPN13 inhibitor, RA475, was cytotoxic for cancer cell lines using the MTT assay.

[6] = system: PEA1; test: MTT cytotoxicity assay, PEA1; assay type: cell-based; conditions: PEA1, ovarian, 72 hr, read-out: IC50, cell killing
Method: as §3, §4

[7] = system: PEA2; test: MTT cytotoxicity assay, PEA2; assay type: cell-based; conditions: PEA2, ovarian, 72 hr, read-out: IC50, cell killing
Method: as §3, §4

[8] = target: T3, 42 kDa cellular protein, consistent with RPN13 (Homo sapiens, UniProt Q16186); test: Up284B competitive labeling assay in SKOV3 or ES2 cell lysates; assay type: binding; conditions: pre-cleared SKOV3 or ES2 lysates, 45 min at 4° C., then 5 μM Up284B
T3 construct: endogenous in cells; host or cells: SKOV3 or ES2 cell lysates, pre-cleared with streptavidin-coated beads
T3 sequence (Q16186 whole entry): as above
Method: as §2
Briefly SKOV3 or ES2 cell lysates were first pre-cleared with streptavidin-coated beads to deplete endogenous biotinylated proteins. The pre-cleared lysates were then divided into equal aliquots. […] The lysates were then boiled in gel sample buffer, separated by SDS-PAGE, and transferred to a PVDF membrane.

In the case of `N[C@@H](Cc1ccccc1)C(=O)N1C/C(=C\c2ccc([N+](=O)[O-])cc2)C(=O)/C(=C/c2ccc([N+](=O)[O-])cc2)C1` [RA183], the “metabolism under the plasma / liver microsome conditions” value [1] is given as “rapidly metabolized”.
For `O=C(CCCC[C@@H]1SCC2NC(=O)NC21)N[C@@H](Cc1ccccc1)C(=O)N1C/C(=C\c2ccc(Cl)c(Cl)c2)C(=O)/C(=C/c2ccc(Cl)c(Cl)c2)C1` (some centres unmarked) [RA190B], the “binding of biotinylated probe to the 42 kDa cellular protein” value [2] was “bound to the 42 kDa cellular protein”.
For `N[C@@H](Cc1ccccc1)C(=O)N1C/C(=C\c2ccc(Cl)c(Cl)c2)C(=O)/C(=C/c2ccc(Cl)c(Cl)c2)C1` [RA190], the “competition with binding of RA190B to the 42 kDa RPN13” value (shortened to “competition with binding of RA190B”) [3] is listed as “competed with the binding of RA190B to the 42 kDa protein”, the “accumulation of polyUb proteins” value [4] is listed as “profound accumulation” and the “metabolism under the plasma / liver microsome conditions” value [1] is listed as “rapidly metabolized”.
In the case of `N#Cc1ccc(/C=C2/C(=O)/C(=C/c3ccc(C#N)cc3)C23CCN(C(=N)N)C3)cc1` [RA477], the IC50 [5] is reported as 405 nM, the IC50 [6] is reported as 331 nM and the IC50 [7] is reported as 312 nM.
In the case of `C=CC(=O)N1CCC2(CC1)/C(=C\c1ccc(C#N)cc1)C(=O)/C2=C/c1ccc(C#N)cc1` [Up285], the “competition with binding of RA190B” value [3] is reported as “competed”.
For `CC(C)C[C@H](NC(=O)[C@H](Cc1ccccc1)NC(=O)c1cnccn1)B(O)O` [bortezomib, reference compound], the “competition with binding of RA190B” value [3] was “neither the vehicle (DMSO) nor bortezomib (negative controls) competed” and the “competition with binding of Up284B probe to RPN13” value [8] was “not competed”.
